Results taken from PubChem BioAssay AID256 (DTP/NCI, 2004).
“And” between values parts separate entries of the source, which are not always exact repeats. Equal values may be shown once. Inconclusive results and toxic doses are left out.

Tested on: CD2F1 mice, L1210 leukemia ip, survival T/C
Experiment: NCI In Vivo Anticancer Drug Screen. Data for tumor model L1210 Leukemia (intraperitoneal) in CD2F1 (CDF1) mice
Conditions: higher = longer survival
Outline: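 Antitumor effect is scored in animals hosting a serially transplanted tumor. Values compare compound-dosed animals against vehicle-only controls as a simple quotient.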

[1] = endpoint: mean survival time, dose: 50.0 mg/kg/injection, schedule: Q04DX003 (ip), vehicle: Klucel (hydroxypropylcellulose) (HPC)
[2] = endpoint: mean survival time, dose: 100.0 mg/kg/injection, schedule: Q04DX003 (ip), vehicle: Klucel (hydroxypropylcellulose) (HPC)
[3] = endpoint: mean survival time, dose: 200.0 mg/kg/injection, schedule: Q04DX003 (ip), vehicle: Klucel (hydroxypropylcellulose) (HPC)
[4] = endpoint: mean survival time, dose: 100.0 mg/kg/injection, schedule: Q04DX003 (ip), vehicle: saline with Tween-80
[5] = endpoint: mean survival time, dose: 200.0 mg/kg/injection, schedule: Q04DX003 (ip), vehicle: saline with Tween-80
[6] = endpoint: mean survival time, dose: 100.0 mg/kg/injection, schedule: Q01DX001 (ip), vehicle: saline with Tween-80
[7] = endpoint: mean survival time, dose: 100.0 mg/kg/injection, schedule: Q04DX002 (ip), vehicle: saline with Tween-80
[8] = endpoint: mean survival time, dose: 100.0 mg/kg/injection, schedule: Q01DX009 (ip), vehicle: saline with Tween-80
[9] = endpoint: mean survival time, dose: 200.0 mg/kg/injection, schedule: Q01DX009 (ip), vehicle: saline with Tween-80
[10] = endpoint: mean survival time, dose: 400.0 mg/kg/injection, schedule: Q01DX009 (ip), vehicle: saline with Tween-80
[11] = endpoint: mean survival time, dose: 200.0 mg/kg/injection, schedule: Q04DX002 (ip), vehicle: saline with Tween-80
[12] = endpoint: mean survival time, dose: 400.0 mg/kg/injection, schedule: Q04DX002 (ip), vehicle: saline with Tween-80
[13] = endpoint: mean survival time, dose: 400.0 mg/kg/injection, schedule: Q04DX003 (ip), vehicle: saline with Tween-80
[14] = endpoint: mean survival time, dose: 50.0 mg/kg/injection, schedule: Q01DX009 (ip), vehicle: saline with Tween-80

CCCCOC(=O)c1ccccc1Cl
T/C [1]: 94 % of control | T/C [2]: 100 % of control | T/C [3]: 102 % of control

CC(=O)CC(C)=O.CC(=O)CC(C)=O.CC(=O)CC(C)=O.CC(=O)CC(C)=O.[Hf]
T/C [4]: 86 % of control | T/C [5]: 94 % of control

ONc1nc(NO)c2[nH]cnc2n1
T/C (endpoint: mean survival time, dose: 2.3 mg/kg/injection, schedule: Q01DX001 (ip), vehicle: other): 124 % of control | T/C (endpoint: mean survival time, dose: 3.5 mg/kg/injection, schedule: Q01DX001 (ip), vehicle: other): 122 % of control | T/C (endpoint: mean survival time, dose: 8.0 mg/kg/injection, schedule: Q01DX001 (ip), vehicle: other): 160 % of control and 168 % of control | T/C (endpoint: mean survival time, dose: 12.5 mg/kg/injection, schedule: Q01DX001 (ip), vehicle: other): 153 % of control | T/C (endpoint: mean survival time, dose: 29.0 mg/kg/injection, schedule: Q01DX001 (ip), vehicle: other): 156 % of control | T/C (endpoint: mean survival time, dose: 44.0 mg/kg/injection, schedule: Q01DX001 (ip), vehicle: other): 153 % of control and 172 % of control | T/C (endpoint: mean survival time, dose: 66.0 mg/kg/injection, schedule: Q01DX001 (ip), vehicle: other): 190 % of control | T/C (endpoint: mean survival time, dose: 100.0 mg/kg/injection, schedule: Q01DX001 (ip), vehicle: other): 202 % of control | T/C (endpoint: mean survival time, dose: 150.0 mg/kg/injection, schedule: Q01DX001 (ip), vehicle: other): 182 % of control

O=C(O)C(C(=O)O)C1Cc2cccc3cccc1c23 (stereo unspecified)
T/C [6]: 94 % of control

CN(C(=O)Nc1ccc([N+](=O)[O-])cc1)c1ccccc1
T/C (endpoint: mean survival time, dose: 100.0 mg/kg/injection, schedule: Q01DX001 (ip), vehicle: saline): 96 % of control | T/C (endpoint: mean survival time, dose: 200.0 mg/kg/injection, schedule: Q01DX001 (ip), vehicle: saline): 98 % of control | T/C (endpoint: mean survival time, dose: 400.0 mg/kg/injection, schedule: Q01DX001 (ip), vehicle: saline): 102 % of control

CCN(CC)CCC(O)c1ccc2c3ccccc3n(C)c2c1 (stereo unspecified)
T/C [7]: 109 % of control

[Cl][Pt+2][Cl].[NH-]CCC([NH-])C(=O)O (stereo unspecified)
T/C (endpoint: mean survival time, dose: 12.5 mg/kg/injection, schedule: Q04DX003 (ip), vehicle: saline): 107 % of control | T/C (endpoint: mean survival time, dose: 25.0 mg/kg/injection, schedule: Q04DX003 (ip), vehicle: saline): 121 % of control | T/C (endpoint: mean survival time, dose: 50.0 mg/kg/injection, schedule: Q04DX003 (ip), vehicle: saline): 115 % of control

CC(=O)OC1CCC2(C)C(=CC=C3C2=CCC2(C)C3CCC2C(C)/C=C\C(C)C(C)C)C1 (stereo unspecified)
T/C (endpoint: mean survival time, dose: 50.0 mg/kg/injection, schedule: Q01DX009 (ip), vehicle: Klucel (hydroxypropylcellulose) (HPC)): 96 % of control | T/C (endpoint: mean survival time, dose: 100.0 mg/kg/injection, schedule: Q01DX009 (ip), vehicle: Klucel (hydroxypropylcellulose) (HPC)): 93 % of control | T/C (endpoint: mean survival time, dose: 200.0 mg/kg/injection, schedule: Q01DX009 (ip), vehicle: Klucel (hydroxypropylcellulose) (HPC)): 101 % of control

CC(=O)OCC(OC(C)=O)C(OC(C)=O)C(OC(C)=O)C(OC(C)=O)OC(C)=O (stereo unspecified)
T/C [6]: 94 % of control | T/C (endpoint: mean survival time, dose: 200.0 mg/kg/injection, schedule: Q01DX001 (ip), vehicle: saline with Tween-80): 96 % of control | T/C (endpoint: mean survival time, dose: 400.0 mg/kg/injection, schedule: Q01DX001 (ip), vehicle: saline with Tween-80): 96 % of control

C[N+](C)(C)C.[Cl][Fe]([Cl])([Cl])[Cl]
T/C (endpoint: mean survival time, dose: 3.13 mg/kg/injection, schedule: Q01DX009 (ip), vehicle: saline): 94 % of control | T/C (endpoint: mean survival time, dose: 6.25 mg/kg/injection, schedule: Q01DX009 (ip), vehicle: saline): 97 % of control | T/C (endpoint: mean survival time, dose: 12.5 mg/kg/injection, schedule: Q01DX009 (ip), vehicle: saline): 91 % of control

CCC(Cl)[N+](=O)[O-] (stereo unspecified)
T/C [1]: 97 % of control | T/C [2]: 107 % of control | T/C [3]: 101 % of control

O=C(Cc1nc2ccccc2[nH]c1=O)N/N=C/c1ccc2c(c1)CCC2
T/C [8]: 92 % of control | T/C [9]: 88 % of control | T/C [10]: 88 % of control

CC1=C(C2=C(C)C([N+](=O)[O-])(C(C)(C)C)C=C(C(C)(C)C)C2=O)C(=O)C(C(C)(C)C)=CC1([N+](=O)[O-])C(C)(C)C (stereo unspecified)
T/C [7]: 90 % of control | T/C [11]: 94 % of control | T/C [12]: 90 % of control

C=C1C(=O)O[C@@H]2[C@H](O)[C@@H](C)[C@@H]3C=CC(=O)[C@@]3(C)[C@H](OC(=O)C=C(C)C)[C@H]12
T/C (endpoint: mean survival time, dose: 1.25 mg/kg/injection, schedule: Q01DX009 (ip), vehicle: saline with Tween-80): 100 % of control | T/C (endpoint: mean survival time, dose: 2.5 mg/kg/injection, schedule: Q01DX009 (ip), vehicle: saline with Tween-80): 102 % of control | T/C (endpoint: mean survival time, dose: 5.0 mg/kg/injection, schedule: Q01DX009 (ip), vehicle: saline with Tween-80): 108 % of control | T/C (endpoint: mean survival time, dose: 10.0 mg/kg/injection, schedule: Q01DX009 (ip), vehicle: saline with Tween-80): 106 % of control | T/C (endpoint: mean survival time, dose: 20.0 mg/kg/injection, schedule: Q01DX009 (ip), vehicle: saline with Tween-80): 89 % of control

COC(=O)C(C)NC(=O)OCc1ccccc1 (stereo unspecified)
T/C [4]: 96 % of control | T/C [5]: 98 % of control | T/C [13]: 101 % of control

Cc1cc2c(C)c3cc(C)c(N)cc3nc2cc1N
T/C (endpoint: mean survival time, dose: 75.0 mg/kg/injection, schedule: Q01DX001 (ip), vehicle: saline): 103 % of control

O=C1c2ccccc2C(=O)N1Cc1ccc([N+](=O)[O-])cc1Cl
T/C [14]: 87 % of control | T/C [8]: 98 % of control | T/C [9]: 94 % of control

CC(=O)OCC1OC(n2cnc3c(=S)nc(N)[nH]c32)C(OC(C)=O)C1OC(C)=O (stereo unspecified)
T/C (endpoint: mean survival time, dose: 100.0 mg/kg/injection, schedule: Q01DX005 (ip), vehicle: saline): 112 % of control | T/C (endpoint: mean survival time, dose: 200.0 mg/kg/injection, schedule: Q01DX005 (ip), vehicle: saline): 123 % of control

CCCC/C=C/C1(O)CCCCC1
T/C [14]: 98 % of control | T/C [8]: 103 % of control | T/C [9]: 103 % of control

COc1cc(OC)c(OC)cc1Br
T/C (endpoint: mean survival time, dose: 100.0 mg/kg/injection, schedule: Q01DX009 (ip), vehicle: saline sonified): 101 % of control | T/C [4]: 102 % of control | T/C (endpoint: mean survival time, dose: 200.0 mg/kg/injection, schedule: Q01DX009 (ip), vehicle: saline sonified): 97 % of control | T/C [5]: 102 % of control | T/C (endpoint: mean survival time, dose: 400.0 mg/kg/injection, schedule: Q01DX009 (ip), vehicle: saline sonified): 97 % of control | T/C [13]: 102 % of control

c1ccc2c(c1)nnn2-c1ccncc1
T/C [4]: 91 % of control | T/C [5]: 104 % of control

COc1ccc(/C=C/c2ccc3ccccc3n2)c(OC)c1
T/C [8]: 96 % of control | T/C [4]: 96 % of control | T/C [9]: 102 % of control | T/C [5]: 96 % of control | T/C [10]: 95 % of control | T/C [13]: 96 % of control

CCCc1cc(C(C)=O)c[n+](C2OC(COC(=O)c3ccccc3)C(OC(=O)c3ccccc3)C2O)c1 (stereo unspecified)
T/C (endpoint: mean survival time, dose: 3.13 mg/kg/injection, schedule: Q01DX005 (ip), vehicle: distilled water + Tween-80): 109 % of control | T/C (endpoint: mean survival time, dose: 6.25 mg/kg/injection, schedule: Q01DX005 (ip), vehicle: distilled water + Tween-80): 92 % of control | T/C (endpoint: mean survival time, dose: 12.5 mg/kg/injection, schedule: Q01DX005 (ip), vehicle: distilled water + Tween-80): 93 % of control | T/C (endpoint: mean survival time, dose: 25.0 mg/kg/injection, schedule: Q01DX005 (ip), vehicle: distilled water + Tween-80): 89 % of control | T/C (endpoint: mean survival time, dose: 50.0 mg/kg/injection, schedule: Q01DX005 (ip), vehicle: distilled water + Tween-80): 90 % of control and 97 % of control

O=C(Nc1ccccc1)OCC1CC2CCC1C2 (stereo unspecified)
T/C [8]: 87 % of control | T/C [9]: 93 % of control | T/C [10]: 95 % of control

CC(=O)CS(=O)(=O)CC(N)=O
T/C (endpoint: mean survival time, dose: 100.0 mg/kg/injection, schedule: Q01DX001 (ip), vehicle: saline sonified): 96 % of control | T/C (endpoint: mean survival time, dose: 200.0 mg/kg/injection, schedule: Q01DX001 (ip), vehicle: saline sonified): 96 % of control | T/C (endpoint: mean survival time, dose: 400.0 mg/kg/injection, schedule: Q01DX001 (ip), vehicle: saline sonified): 97 % of control

O=C(c1ccccc1)C1(c2ccccc2)CC1
T/C [4]: 108 % of control | T/C [5]: 101 % of control | T/C [13]: 101 % of control

CN=C(N)N/N=C(\C)c1ccc2c(c1)Cc1cc(/C(C)=N/NC(N)=NC)ccc1-2
T/C (endpoint: median survival time, dose: 0.37 mg/kg/injection, schedule: Q01DX009 (ip), vehicle: saline with Tween-80): 118 % of control and 124 % of control | T/C (endpoint: median survival time, dose: 3.0 mg/kg/injection, schedule: Q01DX009 (ip), vehicle: saline with Tween-80): 121 % of control | T/C (endpoint: median survival time, dose: 6.0 mg/kg/injection, schedule: Q01DX009 (ip), vehicle: saline with Tween-80): 92 % of control and 95 % of control

COc1cc(C(=O)NCCCCCC(=O)O)cc(OC)c1OC
T/C [7]: 91 % of control | T/C [11]: 95 % of control | T/C [12]: 88 % of control
